Measurements from PubChem BioAssay (NCI).
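Interpolation was linear, between the two tested concentrations surrounding the appropriate level; five concentrations were tested over 48 hours in 96-well plates. GI50 marks 50% less growth. At the TGI there is no net growth.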

Tests used:
Assay in all cases: inhibition of tumour cell growth, NCI panel, 48 h; in the data active = GI50 below about 0.43 µM; inactive = the rest
RPMI-8226 leukemia = test system: RPMI-8226 leukemia
UACC-62 melanoma = test system: UACC-62 melanoma
SR leukemia = test system: SR leukemia
K-562 leukemia = test system: K-562 leukemia
HOP-92 NSCLC = test system: HOP-92 NSCLC
NCI/ADR-RES ovarian = test system: NCI/ADR-RES ovarian
RXF 393 renal = test system: RXF 393 renal
SNB-75 CNS = test system: SNB-75 CNS
HCT-15 colon = test system: HCT-15 colon
SF-295 CNS = test system: SF-295 CNS
SK-MEL-2 melanoma = test system: SK-MEL-2 melanoma
NCI-H23 lung = test system: NCI-H23 lung
U251 CNS = test system: U251 CNS
TK-10 renal = test system: TK-10 renal
A549 NSCLC = test system: A549 NSCLC
SW-620 colon = test system: SW-620 colon
SK-OV-3 ovarian = test system: SK-OV-3 ovarian
COLO 205 colon = test system: COLO 205 colon
HOP-62 NSCLC = test system: HOP-62 NSCLC
CCRF-CEM leukemia = test system: CCRF-CEM leukemia
SNB-19 CNS = test system: SNB-19 CNS
SN12C renal = test system: SN12C renal
EKVX NSCLC = test system: EKVX NSCLC
HL-60(TB) leukemia = test system: HL-60(TB) leukemia
MOLT-4 leukemia = test system: MOLT-4 leukemia
IGROV1 ovarian = test system: IGROV1 ovarian
OVCAR-5 ovarian = test system: OVCAR-5 ovarian
UO-31 renal = test system: UO-31 renal
HT29 colon = test system: HT29 colon

Cn1cc(-c2cc(-c3cn(C)c4ccccc34)[nH]n2)c2ccccc21
74.1 µM: TGI (IGROV1 ovarian)
38.7 µM: TGI (RXF 393 renal)
> 100 µM: TGI (RPMI-8226 leukemia) | TGI (UACC-62 melanoma) | TGI (K-562 leukemia) | TGI (NCI/ADR-RES ovarian) | TGI (HCT-15 colon) | TGI (SF-295 CNS) | TGI (SK-MEL-2 melanoma) | TGI (NCI-H23 lung) | TGI (TK-10 renal) | TGI (A549 NSCLC) | TGI (SW-620 colon) | TGI (SK-OV-3 ovarian) | TGI (COLO 205 colon) | TGI (SNB-19 CNS) | TGI (EKVX NSCLC) | TGI (OVCAR-5 ovarian) | TGI (UO-31 renal) | TGI (HT29 colon)
23.1 µM: TGI (SN12C renal)
62.8 µM: TGI (HL-60(TB) leukemia)
29.3 µM: TGI (CCRF-CEM leukemia)
46.9 µM: TGI (U251 CNS)
inactive: GI50 (UACC-62 melanoma) 16.4 µM | GI50 (SR leukemia) 3.46 µM | GI50 (K-562 leukemia) 42.1 µM | GI50 (HOP-92 NSCLC) 2.06 µM | GI50 (NCI/ADR-RES ovarian) 27.6 µM | GI50 (RXF 393 renal) 14.7 µM | GI50 (SNB-75 CNS) 18.4 µM | GI50 (HCT-15 colon) 8.68 µM | GI50 (SF-295 CNS) 17.1 µM | GI50 (SK-MEL-2 melanoma) 57.5 µM | GI50 (NCI-H23 lung) 22 µM | GI50 (U251 CNS) 12.9 µM | GI50 (TK-10 renal) 37.4 µM | GI50 (A549 NSCLC) 16.3 µM | GI50 (SW-620 colon) > 100 µM | GI50 (SK-OV-3 ovarian) 31.6 µM | GI50 (COLO 205 colon) 7.98 µM | GI50 (HOP-62 NSCLC) 17.3 µM | GI50 (CCRF-CEM leukemia) 14.4 µM | GI50 (SNB-19 CNS) 27 µM | GI50 (SN12C renal) 1.95 µM | GI50 (EKVX NSCLC) 27.2 µM | GI50 (HL-60(TB) leukemia) 15.4 µM | GI50 (MOLT-4 leukemia) 4.75 µM | GI50 (IGROV1 ovarian) 8.9 µM | GI50 (OVCAR-5 ovarian) > 100 µM | GI50 (UO-31 renal) 37.6 µM | GI50 (HT29 colon) 5.35 µM
69.9 µM: TGI (SNB-75 CNS)
60 µM: TGI (HOP-62 NSCLC)
20.8 µM: TGI (MOLT-4 leukemia)
9.57 µM: TGI (HOP-92 NSCLC)
14.8 µM: TGI (SR leukemia)
